Test results from publication PMC9926234, “Iterative computational design and crystallographic screening identifies potent inhibitors targeting the Nsp3 macrodomain of SARS-CoV-2” (Proceedings of the National Academy of Sciences of the …, 2023).
“And” between values parts separate entries of the source, which are not always exact repeats. Equal entries are not always repeated. Where two headings read alike, the source gives them in different places.

Legend:
[1] = molecular target: T1, SARS-CoV-2 NSP3 Mac1 (Severe acute respiratory syndrome coronavirus 2, UniProt P0DTD1); assay type: binding; design: contains a conserved macrodomain enzyme (Mac1); settings: for Spearman est (compound concentration vs apparent Tm): DSF dose responsiveness, 1 µM nsp3 mac1, adj p given; for DSF max dTma: maximal thermal upshift vs DMSO control
Method: DSF and associated compound handling was performed as described ([12]), with 5 µM dye “Fluorescent Yellow” (Jacquard iDye Cat #JID1405) used in place of SYPRO Orange. Compounds were tested in triplicate, at seven concentrations in two-fold serial dilutions, at a top concentration of either 1,000 or 100 μM. To minimize experimental noise arising from plate location-based effects on Tma, all concentrations and replicates for each compound were tested within a single region of the microtiter plates, including a DMSO-only control from which ΔTmas were calculated for that compound. […] For each compound, to determine statistical significance of the dose responsive thermal shift, the Spearman’s coefficient was calculated between compound concentration and ΔTma.

[2] = molecular target: T1, SARS-CoV-2 NSP3 Mac1; assay type: binding; settings: for Refined occupancy: ligand occupancy after refinement (phenix.refine)
[3] = PanDDA 1-BDC of the event, compound stock 100 mM, Echo dispense volume 80 nl
[4] = PanDDA event map 1-BDC, crystal soak, Compound_concentration 100 mM, PanDDA run dmso_34 or nohits_35 per dataset
[5] = PanDDA event map, 1 minus background density correction, crystal soaking of Mac1
[6] = PanDDA event map, crystal soak, Compound_concentration 100 mM, Echo_dispense_volume 40 nl
[7] = crystal soak, Compound_concentration 100 mM, Echo dispense 40 nl, PanDDA run dmso_34 or nohits_35 per dataset
[8] = crystal soak, Compound_concentration 100 mM, Echo_dispense_volume 40 nl, PanDDA run (background map) dmso_34, nohits_35 or nohits_62
[9] = crystal soak, compound stock 100 mM, Echo dispense volume 80 nl
[10] = ligand modeled, crystal soak, Compound_concentration 100 mM, Echo_dispense_volume 40 nl
[11] = PanDDA 1-BDC (background density correction) of the event, crystal soak 100 mM, PanDDA run dmso_34
[12] = crystal soak, compound concentration 100 mM, PanDDA run dmso_34, series docking_lead-like_1
[13] = ligand modeled in the crystal structure, crystal soak 100 mM, PanDDA run dmso_34

Cc1nc(S(=O)(=O)NCc2ccc(-c3ccncc3)cc2)cn1C [ZINC000352487041]
Spearman est (compound concentration vs apparent Tm) [1]: 0.73

N#Cc1cccc(-n2ccc(C(=O)OCc3cccnc3)n2)c1 [Z6395]
DSF max dTma [1]: 0.18 °C

Cc1n[nH]c2ncc(CN3CC(C)Oc4c(F)cccc43)cc12 (stereo not drawn) [ZINC000361138637]
Spearman est (compound concentration vs apparent Tm) [1]: 0.07

CC1CN(C(=O)CCc2nc(-c3ccncc3)no2)C1c1ccccc1 (stereo not drawn) [Z0856]
DSF max dTma [1]: 0.6 °C

O=C(NCc1nc2ccccc2c(=O)[nH]1)Nc1cccnc1 [Z8598]
DSF max dTma [1]: 0.22 °C

CO[C@@H]1CN(c2ncnc3[nH]c4cc(F)ccc4c23)C[C@@H](CO)O1 [Compound Z8973]
1-BDC [2, 3]: 0.25 | 1-BDC [2, 4]: 0.23 | 1-BDC (PanDDA) [2, 5]: 0.23 | 1-BDC [2, 6]: 0.23 | PanDDA hit? [2, 7]: TRUE | PanDDA hit? [2, 8]: TRUE | PanDDA hit? [2, 9]: TRUE | Modeled? [2, 10]: TRUE | Refined occupancy ([2]; crystal soaking of Mac1): 60

Cc1oc(C(N)=O)cc1S(=O)(=O)Nc1ccc(Br)c(C#N)c1 [Compound Z6708]
1-BDC ([2]; PanDDA event map background density correction, crystal soak, compound concentration 100 mM): 0.26 | 1-BDC (PanDDA) [2, 5]: 0.26 | Modeled? ([2]; ligand modeled in the crystal structure, crystal soak, compound concentration 100 mM): TRUE | Refined occupancy ([2]; crystal soaking of Mac1): 52

OCC1CN(c2ncnc3[nH]c4cc(F)ccc4c23)CC2(CCC2)O1 (stereo not drawn) [LL123_0025]
1-BDC [2, 3]: 0.1 | 1-BDC [2, 4]: 0.09 | 1-BDC (PanDDA) [2, 5]: 0.07 | 1-BDC [2, 6]: 0.07 | PanDDA hit? [2, 7]: TRUE | PanDDA hit? [2, 8]: TRUE | PanDDA hit? [2, 9]: TRUE | Modeled? [2, 10]: TRUE | Refined occupancy ([2]; crystal soaking of Mac1): 14 | HIT* ([2]; true hit = binding in crystallographic soaking or the HTRF-based binding assay): Y

O=C(Cc1ccc(-n2cccn2)cc1)OCC1CCCNC1=O (stereo not drawn) [Compound Z5505]
1-BDC ([2]; PanDDA event map background density correction, crystal soak, Compound_concentration 100 mM, PanDDA run dmso_34): 0.08 | 1-BDC [2, 5]: 0.08 | PanDDA hit? ([2]; crystal soak, Compound_concentration 100 mM, Echo dispense 40 nl, PanDDA run dmso_34): TRUE | Modeled? ([2]; ligand modeled in crystal structure, crystal soak, Compound_concentration 100 mM, PanDDA run dmso_34): TRUE | Refined occupancy ([2]; crystal soaking of Mac1): 16

O=C(O)CC1CCN(c2ncnc3[nH]c4ccccc4c23)CCC1(F)F (stereo not drawn) [Compound Z6423]
1-BDC [2, 4]: 0.07 | PanDDA hit? [2, 7]: TRUE

OCc1cn(C2CCCN(c3ncnc4[nH]ccc34)C2)nn1 (stereo not drawn) [Compound Z7864]
1-BDC [2, 11]: 0.05 | 1-BDC [2, 5]: 0.05 | PanDDA hit? [2, 12]: TRUE | Modeled? [2, 13]: TRUE | Refined occupancy ([2]; crystal soaking of Mac1): 10

O=C(NS(=O)(=O)Cc1ccc(Br)c(F)c1)c1cnn2ccccc12 [Compound Z3209]
1-BDC (PanDDA) [2, 5]: 0.38 | 1-BDC [2, 6]: 0.38 | PanDDA hit? [2, 8]: TRUE | Modeled? [2, 10]: TRUE | Refined occupancy ([2]; crystal soaking of Mac1): 76

COc1cncc(C(=O)NCCNC(=O)c2ncccc2O)c1 [Compound Z6634]
1-BDC (PanDDA) [2, 5]: 0.14 | 1-BDC [2, 6]: 0.14 | PanDDA hit? [2, 8]: TRUE | Modeled? [2, 10]: TRUE | Refined occupancy ([2]; crystal soaking of Mac1): 28

O=C(Nc1ccc(C(=O)N[C@H]2c3cccc(O)c3C[C@H]2C(=O)O)cc1)NC1CC1 [Compound Z9050]
1-BDC [2, 4]: 0.21 and 0.27 | 1-BDC (PanDDA) [2, 5]: 0.27 | PanDDA hit? [2, 7]: TRUE | Modeled? ([2]; ligand modeled in this dataset, crystal soak, Compound_concentration 100 mM): TRUE | Refined occupancy ([2]; crystal soaking of Mac1): 54

O=C(O)CC1CN(c2ncnc3[nH]c4ccccc4c23)CCO1 (stereo not drawn) [Compound Z9596]
1-BDC ([2]; PanDDA 1-BDC of the event, compound stock 100 mM, Echo dispense volume 40 nl): 0.06 | 1-BDC [2, 3]: 0.09 | 1-BDC (PanDDA) [2, 5]: 0.06 | PanDDA hit? ([2]; crystal soak, compound stock 100 mM, Echo dispense volume 40 nl): TRUE | PanDDA hit? [2, 9]: TRUE | Modeled? ([2]; ligand modeled in structure, compound stock 100 mM, Echo dispense volume 40 nl): TRUE | Refined occupancy ([2]; crystal soaking of Mac1): 12

CCC(=O)Nc1nc(C)c(S(=O)(=O)Nc2cccc(C#N)c2)s1 [Compound Z0611]
1-BDC (PanDDA) [2, 5]: 0.33 | 1-BDC [2, 6]: 0.33 | PanDDA hit? [2, 8]: TRUE | Modeled? [2, 10]: TRUE | Refined occupancy ([2]; crystal soaking of Mac1): 66

c1csc(CC2CCN(c3ncnc4[nH]ccc34)C2)n1 (stereo not drawn) [Compound Z6891]
1-BDC [2, 11]: 0.3 | 1-BDC [2, 5]: 0.3 | PanDDA hit? [2, 12]: TRUE | Modeled? [2, 13]: TRUE | Refined occupancy ([2]; crystal soaking of Mac1): 60

O=C(O)C(F)(F)F.O=C(O)C1CN(c2ncnc3[nH]c4ccccc4c23)CC12CCC2 (stereo not drawn) [Compound Z4706]
1-BDC [2, 3]: 0.21 | 1-BDC [2, 4]: 0.17 | 1-BDC (PanDDA) [2, 5]: 0.14 | 1-BDC [2, 6]: 0.14 | PanDDA hit? [2, 7]: TRUE | PanDDA hit? [2, 8]: TRUE | PanDDA hit? [2, 9]: TRUE | Modeled? [2, 10]: TRUE | Refined occupancy ([2]; crystal soaking of Mac1): 28

Nc1nc(N)c2ncn(Cc3csc(C4CC4)n3)c2n1 [Compound Z8585]
1-BDC ([2]; PanDDA 1-BDC value of the event, crystal soak, compound concentration 100 mM, per dataset): 0.18 | 1-BDC ([2]; PanDDA event map, 1-BDC of the hit dataset, crystal soak, compound concentration 100 mM): 0.4 | 1-BDC [2, 5]: 0.18 | PanDDA hit? ([2]; crystal soak, compound concentration 100 mM, per dataset): TRUE | Modeled? ([2]; ligand modeled in the crystal structure, crystal soak, compound concentration 100 mM, per dataset): TRUE | Refined occupancy ([2]; crystal soaking of Mac1): 36
